# Measurements reported in patent publication US4115569A, “Cyclic diamine derivatives” (Hoechst Aktiengesellschaft, priority 1971, dated 1978).
# Structures can show the parent of a compound that is named as a salt.
# Assays:
# dictyocaulus = settings: in vivo; cited from earlier work
# filaria = settings: in vivo; cited from earlier work
# acute toxicity (LD50) = settings: in vivo
# [1] = system: isolated guinea pig intestine (BaCl2); experiment: spasmolytic action against barium chloride on the isolated guinea pig intestine; design: key to Spasmolytic action against BaCl2 (ED50): (--): reduction of 10%; --: reduction of 25%; ----: reduction of 50%; .phi.: substantially no action; settings: barium chloride 10^-4 mg/ml; for IC50: Cavia porcellus, read-out: Spasmolytic action against BaCl2 (ED50)
# Procedure: (§1) The compounds according to the invention were also tested for their influence on coronary through-flow on the heart mechanogram and for their spasmolytic action.
# (§2) The latter test was performed on the isolated guinea pig intestine by the method of R. Magnus ("Pflugers Archiv" Vol 102 (1904) p 123).
# [2] = system: isolated guinea pig intestine (histamine); experiment: spasmolytic action against histamine on the isolated guinea pig intestine; design: key to Spasmolytic action against Histamine (ED50): (--): reduction of 10%; --: reduction of 25%; ----: reduction of 50%; .phi.: substantially no action; settings: histamine 10^-7 g/ml; for IC50: Cavia porcellus, read-out: Spasmolytic action against Histamine (ED50)
# Procedure: as §1, §2
# reserpine ptosis = experiment: reserpine antagonism (reserpine ptosis test); assay type: in vivo; settings: for change in vivo at 25 mg/kg: po, 1 hr after 25 mg/kg of substance orally, read-out: % Influence on reserpine ptosis
# Procedure: The therapeutic activity of compounds according to the invention was determined by measurement of reserpine antagonism (B. Rubin et al., "J. Pharmacol. exp. Therap." Vol 120 (1957) p 125) and by the effect on the fighting behaviour of fighting mice in the test arrangement of G. Y. Yen et al., (Arch. Int. Pharmacodyn, Vol 123 (1959) p 179).
# heart = experiment: influence on the heart mechanogram (heart muscle force); design: key to Action on the heart mechanogram: (--): reduction of 10%; --: reduction of 25%; ----: reduction of 50%; .phi.: substantially no action
# Procedure: The compounds according to the invention were also tested for their influence on coronary through-flow on the heart mechanogram and for their spasmolytic action. […]
# coronary vessels = experiment: influence on coronary through-flow
# Procedure: as §1
# [3] = system: isolated guinea pig intestine (acetylcholine); experiment: spasmolytic action against acetylcholine on the isolated guinea pig intestine; design: key to Spasmolytic action against Acetylcholine (ED50): (--): reduction of 10%; --: reduction of 25%; ----: reduction of 50%; .phi.: substantially no action; settings: acetylcholine 10^-7 g/ml; for IC50: Cavia porcellus, read-out: Spasmolytic action against Acetylcholine (ED50)
# Procedure: as §1, §2
compound,measurement,setting,value
CCN(CC)C(=O)N1CCN(C)CC1 [4-methylpiperazinocarboxylic acid-(1)-diethylamide citrate],use against dictyocaulus infections,dictyocaulus,successfully used
same,use against filaria infections,filaria,successfully used against filaria
"O=C(c1cc2ccccc2o1)N1CCN(Cc2ccccc2)CC1 [Compound 1, N-Benzyl-coumarillic acid piperazide]",LD50,"acute toxicity (LD50); ip, i.p. mouse",320 mg/kg
same,LD50,"acute toxicity (LD50); po, orally, mouse",2050 mg/kg
same,IC50,[1],1 to 10 µg/mL
same,IC50,[2],1 to 10 µg/mL
same,change in vivo at 25 mg/kg,reserpine ptosis,-50%
same,Action on the heart mechanogram,heart; dose 10 (82 g),.phi.
same,Action on the heart mechanogram,heart; dose 30 (82 g),.phi.
same,Action on the heart mechanogram,heart; dose 100 (82 g),-- (reduction of 25%)
same,reduction of the heart muscle force,heart; dose of 100 μg,25%
same,action on coronary flow / coronary vessels (in words),coronary vessels,considerable increase in the coronary through-flow without subsequent contraction of the vessel
same,Coronary through-flow: Duration (initial or only value),coronary vessels; dose 10 (82 g),0.5 min
same,Coronary through-flow: Change (initial or only value),coronary vessels; dose 30 (82 g),+38%
same,Coronary through-flow: Duration (initial or only value),coronary vessels; dose 30 (82 g),1.0 min
same,Coronary through-flow: Change (initial or only value),coronary vessels; dose 100 (82 g),+120%
same,Coronary through-flow: Duration (initial or only value),coronary vessels; dose 100 (82 g),26.0 min
same,IC50,[3],10 µg/mL
"O=C(c1cc2ccccc2o1)N1CCN(Cc2ccc(Cl)cc2)CC1 [Compound 2, N-(4-chloro)-benzyl-coumarillic acid piperazide]",IC50,[1],1 to 10 µg/mL
same,IC50,[2],1 to 10 µg/mL
same,Spasmolytic action against Acetylcholine (ED50),[3],>
"O=C(c1cc2ccccc2o1)N1CCN(Cc2ccc(Cl)c(Cl)c2)CC1 [Compound 3, N-(3,4-dichlorobenzyl)-coumarillic acid piperazide]",LD50,"acute toxicity (LD50); ip, i.p. mouse",1000 to 1500 mg/kg
same,change in vivo at 25 mg/kg,reserpine ptosis,-22%
"O=C(c1cc2ccccc2o1)N1CCN(Cc2ccc(F)cc2)CC1 [Compound 5, N-(4-fluorobenzyl)-coumarillic acid piperazide]",LD50,"acute toxicity (LD50); ip, i.p. mouse",100 to 250 mg/kg
same,change in vivo at 25 mg/kg,reserpine ptosis,-50%
"O=C(c1cc2ccccc2o1)N1CCN(Cc2cccs2)CC1 [Compound 16, N-thenyl-coumarillic acid piperazide]",LD50,"acute toxicity (LD50); ip, i.p. mouse",100 to 250 mg/kg
same,LD50,"acute toxicity (LD50); po, orally, mouse",1980 mg/kg
same,Spasmolytic action against BaCl2 (ED50),[1],.phi.
same,Spasmolytic action against Histamine (ED50),[2],.phi.
same,change in vivo at 25 mg/kg,reserpine ptosis,-54%
same,Spasmolytic action against Acetylcholine (ED50),[3],.phi.
"O=C(c1cc2ccccc2o1)N1CCCN(Cc2ccccc2)CC1 [Compound 17, N-benzyl-coumarillic acid homopiperazide]",Action on the heart mechanogram,heart; dose 10 (82 g),.phi.
same,Action on the heart mechanogram,heart; dose 30 (82 g),.phi.
same,Coronary through-flow: Change (initial or only value),coronary vessels; dose 10 (82 g),+8%
same,Coronary through-flow: Duration (initial or only value),coronary vessels; dose 10 (82 g),1.0 min
same,Coronary through-flow: Change (initial or only value),coronary vessels; dose 30 (82 g),+25%
same,Coronary through-flow: Duration (initial or only value),coronary vessels; dose 30 (82 g),1.0 min
"O=C(C1Cc2ccccc2O1)N1CCN(Cc2ccccc2)CC1 (stereo not shown) [Compound 20, N-benzyl-2,3-dihydrocoumarillic acid piperazide]",LD50,"acute toxicity (LD50); ip, i.p. mouse",100 to 150 mg/kg
same,IC50,[1],0.3 µg/mL
same,IC50,[2],1 µg/mL
same,change in vivo at 25 mg/kg,reserpine ptosis,-32%
same,Coronary through-flow: Change (initial or only value),coronary vessels; dose 10 (82 g),+25%
same,Coronary through-flow: Change (initial or only value),coronary vessels; dose 50 (82 g),+50%
same,IC50,[3],3 µg/mL
"O=C(c1ccco1)N1CCN(Cc2ccccc2)CC1 [Compound 21, N-benzyl-furan-2-carboxylic acid piperazide]",Spasmolytic action against BaCl2 (ED50),[1],.phi.
same,IC50,[2],0.1 µg/mL
same,Spasmolytic action against Acetylcholine (ED50),[3],.phi.
"O=C(c1ccco1)N1CCN(Cc2ccc(Cl)c(Cl)c2)CC1 [Compound 22, N-3,4-dichlorobenzyl-furan-2-carboxylic acid piperazide]",LD50,"acute toxicity (LD50); ip, i.p. mouse",250 to 500 mg/kg
same,change in vivo at 25 mg/kg,reserpine ptosis,-23%
"CC1=C(C(=O)N2CCN(Cc3ccccc3)CC2)CCCO1 [Compound 24, N-benzyl-[6-methyl-2,3-dihydropyran-5-carboxylic acid]piperazide]",Spasmolytic action against BaCl2 (ED50),[1],.phi.
same,Spasmolytic action against Histamine (ED50),[2],.phi.
same,Spasmolytic action against Acetylcholine (ED50),[3],.phi.
"CC1=C(C(=O)N2CCN(Cc3ccc(Cl)c(Cl)c3)CC2)CCCO1 [Compound 25, N-3,4-dichlorobenzyl-[6-methyl-2,3-dihydropyran-5-carboxylic acid]-piperazide]",IC50,[1],> 10 µg/mL
same,IC50,[2],1 to 10 µg/mL
same,Action on the heart mechanogram,heart; dose 6 (82 g),(--) (reduction of 10%)
same,reduction of the heart muscle force,heart; dose of 30 μg,less than 25%
same,Coronary through-flow: Duration (initial or only value),coronary vessels; dose 6 (82 g),8.0 min
same,Coronary through-flow: Change (initial or only value),coronary vessels; dose 30 (82 g),+31%
same,Coronary through-flow: Duration (initial or only value),coronary vessels; dose 30 (82 g),27.0 min
same,IC50,[3],1 to 10 µg/mL
"CC1=C(C(=O)N2CCN(Cc3c(C)cc(C)cc3C)CC2)CCCO1 [Compound 26, N-(2,4,6-Trimethylbenzyl)-N-2-methyl-5,6-dihydro-pyran-3-carbonyl-piperazine-hydrochloride]",Coronary through-flow: Change (initial or only value),coronary vessels; dose 30 (82 g),+13%
same,Coronary through-flow: Duration (initial or only value),coronary vessels; dose 30 (82 g),5 min
same,Coronary through-flow: Change (initial or only value),coronary vessels; dose 100 (82 g),+21%
same,Coronary through-flow: Duration (initial or only value),coronary vessels; dose 100 (82 g),> 12 min
CC1=C(C(=O)N2CCN(Cc3cccs3)CC2)CCCO1 [Compound 28],Spasmolytic action against BaCl2 (ED50),[1],.phi.
same,Spasmolytic action against Histamine (ED50),[2],.phi.
same,Spasmolytic action against Acetylcholine (ED50),[3],.phi.
"CC1OCCCC1C(=O)N1CCN(Cc2ccccc2)CC1 (stereo not shown) [Compound 29, N-benzyl-[6-methyl-tetrahydropyran-5-carboxylic acid]-piperazide]",IC50,[1],> 10 µg/mL
same,IC50,[2],> 10 µg/mL
same,IC50,[3],> 10 µg/mL
"O=C(c1cc2ccccc2[nH]1)N1CCN(Cc2ccccc2)CC1 [Compound 30, N-Benzyl-indole-2-carboxylic acid piperazide]",Coronary through-flow: Change (initial or only value),coronary vessels; dose 10 (82 g),+90%
same,Coronary through-flow: Duration (initial or only value),coronary vessels; dose 10 (82 g),12 min
O=C(c1cccs1)N1CCN(Cc2cccs2)CC1 [Compound 42],LD50,"acute toxicity (LD50); ip, i.p. mouse",100 to 250 mg/kg
same,change in vivo at 25 mg/kg,reserpine ptosis,-49%
"CN(C)CCCN1c2ccccc2CCc2ccccc21 [Imipramine, 5-(3'-dimethylaminopropyl)-10-11-dihydro-5-H-dibenz-[b,f]-azepine hydrochloride, reference compound]",IC50,[1],0.1 to 1 µg/mL
same,IC50,[2],0.001 µg/mL
same,activity in reserpine test (in words),reserpine ptosis; in vivo,high activity
same,change in vivo at 25 mg/kg,reserpine ptosis,-76%
same,Action on the heart mechanogram,heart; dose 10 (82 g),-- (reduction of 25%)
same,Action on the heart mechanogram,heart; dose 20 (82 g),-- (reduction of 25%)
same,Action on the heart mechanogram,heart; dose 30 (82 g),---- (reduction of 50%)
same,reduction of the heart muscle force,heart; dose of 10 μg,25%
same,reduction of the heart muscle force,heart; dose of 20 μg,25%
same,reduction of the heart muscle force,heart; dose of 30 μg,50%
same,action on coronary flow / coronary vessels (in words),coronary vessels,"initially a brief rise in coronary flow but this changes into a long contraction, and thus damages the heart"
same,Coronary through-flow: Change (initial or only value),coronary vessels; dose 10 (82 g),+19%
same,"Coronary through-flow: Change (second value, subsequent contraction)",coronary vessels; dose 10 (82 g),-18%
same,Coronary through-flow: Duration (initial or only value),coronary vessels; dose 10 (82 g),0.5 min
same,"Coronary through-flow: Duration (second value, subsequent contraction)",coronary vessels; dose 10 (82 g),21 min
same,Coronary through-flow: Change (initial or only value),coronary vessels; dose 20 (82 g),+28%
same,"Coronary through-flow: Change (second value, subsequent contraction)",coronary vessels; dose 20 (82 g),-29%
same,Coronary through-flow: Duration (initial or only value),coronary vessels; dose 20 (82 g),0.6 min
same,"Coronary through-flow: Duration (second value, subsequent contraction)",coronary vessels; dose 20 (82 g),26 min
same,Coronary through-flow: Change (initial or only value),coronary vessels; dose 30 (82 g),+84%
same,"Coronary through-flow: Change (second value, subsequent contraction)",coronary vessels; dose 30 (82 g),-22%
same,"Coronary through-flow: Duration (second value, subsequent contraction)",coronary vessels; dose 30 (82 g),> 10 min
same,IC50,[3],0.01 to 0.1 µg/mL
